The values that follow come from patent US20250049927A1, “MODIFIED OLIGONUCLEOTIDE-DRUG CONJUGATE AND USE THEREOF” (INTEROLIGO CORPORATION., priority 2021, published 2025).

Data set [1] can be described thus: in vivo. To be noted: male, Sprague-Dawley, rat, iv, 2 mg/kg. How it is done: Specifically, Sprague-Dawley male rats (8 weeks old, purchased from Youngbio) were acclimatized for 1 week in the animal room of the Catholic University Songsim Campus, and then pharmacokinetic experiments were performed. Rats were induced with isoflurane, an inhalation anesthetic, and PE50 (polyethylene tubing, Clay Adams, Becton Dickinson, NJ, USA) was inserted into the carotid (for blood collection) and jugular vein (for drug administration), followed by suturing with suture, and then end portions thereof were fixed to the back of the neck. During the surgery, anesthesia was maintained using ether, and about 0.5 mL of physiological saline solution containing heparin (20 units/mL) was injected to prevent blood from coagulating in the cannula. After completing the surgery, each rat was placed in a metabolic cage and allowed to fully recover from the anesthetic (for 4-5 hours). Then, the rats were divided into three groups of a group administered with Example 9 (IO176) alone (n=6), and a group administered with MMAE alone (n=7), and a group administered with gemcitabine alone (n=6), and each sample (Example 9, MMAE alone, gemcitabine alone) was administered into the rats. All of Example 9, MMAE and gemcitabine were dissolved in physiological saline at 2 mL per kg of body weight and administered into the jugular vein at doses of 40 mg/kg, 4 mg/kg and 2 mg/kg, respectively. When collecting blood, in order to prevent gemcitabine in 0.2 mL of blood from being converted into metabolites by cytidine deaminase, a light-shielding Eppendorf tube was prepared in which 2 μL of a solution containing tetrahydrouridine (hereinafter referred to as THU), a cytidine deaminase inhibitor, dissolved in distilled water at a concentration of 10 mg/mL was added in advance. […] Immediately after completing the blood collection, the plasma that had been stored in an ice-bath was quickly centrifuged at 4° C., and 100 μL of the plasma was dispensed into the light-shielding Eppendorf tube. The dispensed plasma was quickly stored in an ice-bath and maintained at −80° C. until LC-MS/MS analysis was performed. After collection of blood from the carotid, the rats were euthanized in a CO2 gas chamber.
• Analysis equipment: Agilent 1290 series HPLC, Qtrap 5500 LC-MS/MS • Detector: Tandem mass spectrometer (triple quadrouple type) • Ion source: Electrospray ionization (positive ion mode) • Desolvation temperature: 500° C. • Nebulizing gas: Nitrogen, Collision gas: Nitrogen • Quantitation: MRM (multiple reaction monitoring) mode • Stationary phase: Hypersil gold C18 column (2.1×100 mm, 1.9 μm, Thermo) Fisher Scientific Inc., Boston, USA) • Stationary phase temperature: 40° C. • Mobile phase: Distilled water (A) and acetonitrile (B) respectively containing 0.1% formic acid (95:5, v/v) (see [Table below) • Flow rate: 0.22 mL/min • Mass parameters: See [Table 8] below (CE: Collision energy)
Each of gemcitabine and dFdU standard product was dissolved in distilled water to prepare 400 μg/mL and 700 μg/mL of storage solutions and store them frozen. Then, the storage solutions were diluted with tertiary distilled water to prepare working solutions so that the concentrations were 0.200, 0.400, 0.800, 2.00, 10.0 and 40.0 μg/mL, respectively, followed by storing them in a refrigerator. 5′-Deoxy-5-fluorocytidine, an internal standard (IS), was dissolved in acetonitrile to prepare 50 ng/mL of working solution. The working solution of gemcitabine and dFdU was added to rat blank plasma containing THU to prepare standard plasma samples so that the plasma concentrations of gemcitabine and dFdU were 10, 20, 40, 100, 500 and 2000 ng/mL, respectively.
150 μL of 5′-Deoxy-5-fluorocytidine (50 ng/mL), the internal standard dissolved in acetonitrile, was added to 20 μL of rat plasma, and vortexed for 10 minutes, followed by centrifuging at 14,000 rpm at 4° C. for 5 minutes.

Data set [2] relates to BxPC-3 pancreatic cancer cell lines. Kind of data set: Pancreatic cancer cell growth inhibition, WST assay. The settings on record: BxPC-3, 72 hours treatment, absorbance 450 nm. The data set is classed as cell-based. How it is done: The in vitro anticancer efficacy of the modified oligonucleotide-drug conjugates was verified using pancreatic cancer cell lines. Pancreatic cancer cell lines (BxPC-3) were treated with the above-described examples and comparative examples at concentrations of 0, 0.01, 0.1, 1, 10, 100, 500 and 1000 μM, and the specific IC50 measurement method and measurement results are as follows.
All cell lines were cultured in a 5% CO2 incubator at 37° C. The BxPC-3 pancreatic cancer cell lines were cultured using a medium containing 10% FBS and 1% antibiotics put into ATCC modified RPMI-1640 (Thermo Scientific, USA). The medium was replaced once every 2-3 days, and passage-cultured at a time when about 70-90% of a culture dish was filled with the cells. First, the cells were washed with PBS, then 0.05% Trypsin-EDTA was added and cultured at 37° C. for 2 minutes, and then a new medium was added to inactivate trypsin. The cells were separated from trypsin and medium using a centrifuge, then another new medium was added and passaged at a ratio of 1:4, followed by culturing the same. All cells were periodically checked for contamination by mycoplasma using a kit (Intron, Korea), and in vitro efficacy evaluation experiments were conducted using only cells in which contamination was not detected.
Using WST reagent (Dongin LS, Korea), an inhibitory effect on pancreatic cancer cell growth by drug treatment was confirmed and IC50 was measured. An orange coloring substance called formazan is produced in WST by mitochondrial dehydrogenase within cells, which is effective only in living cells. The specific test method is as follows.
The cells cultured by the above-described method were dispensed by 2×10^4 into each well of a 96-well culture vessel and cultured for 24 hours. The medium of the cells attached to the culture vessel was replaced with an ATCC modified RPMI-1640 medium containing 5% FBS, and samples of the above-described modified oligonucleotide-drug conjugates (Examples 1-7 and 9-12, and Comparative Example 1-7, respectively) were treated at concentrations of 0, 0.01, 0.1, 1, 10, 100, 500 and 1000 μM. After 72 hours, 10 μl of WST reagent was added to each well and reacted for 2 hours. The produced formazan was measured with an absorbance at 450 nm using a Glomax plate meter (Promega, USA), and IC50 was evaluated according to the protocol in the device. IC50 evaluation results and graphs illustrating the same are shown in Table 2 below and FIGS. 19 to 27 (in Table 2, M=Gemcitabine, and N=5-FdU).

Broadly, the Vd is the apparent volume that relates the amount in the body to the concentration in plasma or blood. For orientation: AUC(0-inf) means total exposure, with the tail of the curve extrapolated. A lower AUC(0-inf) goes with less exposure. The term AUC(0-t) denotes the area under the concentration-time curve up to a stated or last time point. A low value points to low exposure. The MRT is the average time that molecules of a dose stay in the body. What is called clearance is the volume of plasma or blood freed of the substance per unit of time. Usually half-life stands for the time in which the quantity being followed falls by half. Low readings indicate fast loss, high ones slow loss. `Nc1ccn([C@@H]2O[C@H](CO)[C@@H](O)C2(F)F)c(=O)n1` [Gemcitabine, 2′,2′-difluoro-2′-deoxycytidine] returned a Vd in data set [1] (in vivo) of 2.73 ± 1.22 L/kg. In data set [1] (plasma), this compound showed an AUC(0-inf) of 7.5 µg·h/mL, an AUC(0-t) of 7.3 µg·h/mL, an MRT of 5.7 h and a clearance of 0.286 ± 0.0858 L/h/kg. The compound further displayed a half-life in data set [1] (plasma) of 6.8 ± 2.78 h.
Usually IC50 stands for the concentration at which inhibition is half-maximal. Compound “Comparative Example 1: control aptamer GGTGGTGGTGGTTGTGGTGGTGGTGG (SEQ ID NO: 1)” gave an IC50 in data set [2] of 89.9 µM. This counts as double-digit micromolar.
In data set [2], “Comparative Example 2 (GGTGGTGGTGGTTGNGGTGGTGGTGG; paclitaxel conjugate; modified_base 15 OTHER; deoxyuridine(dU)-acrylamide-C6-NH2)” had an IC50 of 4.59 µM.
The same measure, in the same setting: the value for “Comparative Example 3 (GGTGGTGGTGGTNGTGGTGGTGGTGG; paclitaxel via acrylamide-C6-NH-succinic acid linker; modified_base 13 OTHER; deoxyuridine(dU)-acrylamide-C6-NH2)” was 0.04 µM; that for “Comparative Example 6: DM1 conjugated to U of GGTGGTGGTGGTUGTGGTGGTGGTGG (SEQ ID NO: 3); linker -acrylamide-C6-NH-SMCC- (DNA ggtggtggtggtngtggtggtggtgg; DM1 via acrylamide-C6-NH-SMCC linker; modified_base 13 OTHER; deoxyuridine(dU))” was 3.01 µM; that for “Example 1: paclitaxel conjugated to U of GGTGGTGGTGGUMGTGGTGGTGGTGG (SEQ ID NO: 4), M=Gemcitabine; linker -acrylamide-C6-NH-succinic acid- (DNA GGTGGTGGTGGNNGTGGTGGTGGTGG; paclitaxel via linker; gemcitabine at M; modified_base 12 OTHER; deoxyuridine(dU); modified_base 13 OTHER; Gemcitabine)” was 2.21 µM.
Still for that read-out and setting: the value for “Example 2 (GGTGGTGGTGGNTNTGGTGGTGGTGG; paclitaxel via acrylamide-C6-NH-succinic acid linker; modified_base 12 OTHER; deoxyuridine(dU); modified_base 14 OTHER; gemcitabine)” was 0.23 µM; that for “Example 3 (GGTGGTGGTGGTNNTGGTGGTGGTGG; paclitaxel via acrylamide-C6-NH-succinic acid linker on U; modified_base 13 OTHER; deoxyuridine(dU); modified_base 14 OTHER; gemcitabine)” was 1 µM.
On the same count and under the same terms, the result for “Example 6: paclitaxel conjugated to U of GGTGGTGGTGGTUGTGGTGGTGGMGG (SEQ ID NO: 9), M=Gemcitabine; linker -acrylamide-C6-NH-succinic acid- (DNA GGTGGTGGTGGTNGTGGTGGTGGNGG; paclitaxel via linker; gemcitabine at M; modified_base 13 OTHER; deoxyuridine(dU); modified_base 24 OTHER; gemcitabine)” reads 0.14 µM; that for “Example 7 (GGTGGTGGTGGTTGNGGTGGTGGNGG; paclitaxel via acrylamide-C6-NH-succinic acid linker on U; modified_base 15 OTHER; deoxyuridine(dU); modified_base 24 OTHER; gemcitabine)”, 0.11 µM.
As for “Example 11: DM1 conjugated to U of GGTGGTGGTGGMUGMGGTGGTGGTGG (SEQ ID NO: 8), M=Gemcitabine; linker -acrylamide-C6-NH-SMCC- (DNA GGTGGTGGTGGNNGNGGTGGTGGTGG; gemcitabine nucleotides; DM1 via SMCC linker; modified_base 13 OTHER; deoxyuridine(dU); modified_base 12 OTHER; gemcitabine; modified_base 15 OTHER)”, the IC50 in data set [2] was found to be 26.7 µM.
